Results as given in patent publication US5922767A, “Substituted benzylurea derivatives and medicine containing the same” (SS Pharmaceutical Co., Ltd., priority 1996, dated 1999).

Tests used:
ACAT in J774 cells = target: T1, ACAT in J774 cells (Mus musculus, UniProt Q61263); test: Test for inhibitory activity against ACAT using J774 cells; assay type: cell-based; conditions: 100 nM of each compound, Mean ± S.D., n = 3, vs DMSO control, read-out: Inhibition rate against ACAT activity in J774 cells
T1 construct: endogenous in cells; host or cells: J774 cells (mouse macrophage-like)
T1 sequence (Q61263 1-540): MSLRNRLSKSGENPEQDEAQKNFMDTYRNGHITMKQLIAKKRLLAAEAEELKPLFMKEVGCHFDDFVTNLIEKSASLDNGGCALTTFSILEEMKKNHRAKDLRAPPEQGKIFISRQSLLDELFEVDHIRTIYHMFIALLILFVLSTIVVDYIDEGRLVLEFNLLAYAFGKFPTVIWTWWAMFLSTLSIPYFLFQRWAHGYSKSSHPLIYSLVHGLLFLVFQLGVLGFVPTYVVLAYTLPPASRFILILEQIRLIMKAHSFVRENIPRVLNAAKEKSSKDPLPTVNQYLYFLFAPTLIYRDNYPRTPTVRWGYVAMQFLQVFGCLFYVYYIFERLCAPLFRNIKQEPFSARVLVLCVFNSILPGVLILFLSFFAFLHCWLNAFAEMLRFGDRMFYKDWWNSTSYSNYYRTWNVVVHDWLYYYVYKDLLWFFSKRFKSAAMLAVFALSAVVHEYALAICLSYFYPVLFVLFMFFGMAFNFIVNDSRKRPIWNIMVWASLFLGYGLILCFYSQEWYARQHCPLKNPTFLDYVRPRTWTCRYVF
Experimental: i) Test for inhibitory activity against ACAT using J774 cells:
The ACAT activity of J774 cells was measured as the radioactivity of cholesteryl oleate produced from [^14 C]oleic acid and cholesterol which were added to a culture solution.
The extract was dried to solid under reduced pressure. After the resultant residue was then developed (developing solvent: diethyl ether/hexane/acetic acid=80/20/1) by TLC (thin-layer chromatography), the amount of cholesteryl oleate formed was determined by an imaging plate.

[1] = target: T2, ACAT of rat liver microsomes (Rattus norvegicus, UniProt Q7TQM4); test: Test for inhibitory activity against ACAT using rat liver microsomes; assay type: biochemical; conditions: 5 min; 100 nM of each compound; Mean ± S.D.; n = 3; vs DMSO control; read-out: Inhibition rate against ACAT activity in rat liver microsome
T2 construct: rat liver microsome fraction prepared in accordance with a method known per se; from tissue; host or cells: rat liver microsomes
T2 sequence (Q7TQM4 1-524): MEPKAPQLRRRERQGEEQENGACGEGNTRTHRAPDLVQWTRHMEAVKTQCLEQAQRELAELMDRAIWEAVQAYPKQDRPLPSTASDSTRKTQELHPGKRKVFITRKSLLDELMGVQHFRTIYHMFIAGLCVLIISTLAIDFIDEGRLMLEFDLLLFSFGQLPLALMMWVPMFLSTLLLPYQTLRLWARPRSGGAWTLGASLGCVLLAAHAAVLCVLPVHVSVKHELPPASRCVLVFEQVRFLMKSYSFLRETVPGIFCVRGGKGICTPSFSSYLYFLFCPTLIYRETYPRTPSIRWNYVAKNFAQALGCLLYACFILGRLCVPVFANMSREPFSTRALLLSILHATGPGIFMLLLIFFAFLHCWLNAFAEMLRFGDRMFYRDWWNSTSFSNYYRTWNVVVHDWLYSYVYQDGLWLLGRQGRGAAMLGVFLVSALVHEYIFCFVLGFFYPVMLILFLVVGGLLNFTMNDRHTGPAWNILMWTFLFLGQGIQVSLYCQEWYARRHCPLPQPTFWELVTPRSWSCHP
Experimental: More specifically, [^14 C]oleoyl-CoA and delipidized BSA were added to a rat liver microsome fraction prepared in accordance with a method known per se in the art to conduct a reaction at 37° C. for 5 minutes. After the reaction, the lipid in the reaction mixture was extracted with hexane, and the extract was dried to solid under reduced pressure.

In the case of `CC(C)c1cccc(C(C)C)c1NC(=O)NCc1cccc(OCc2ccc([N+](=O)[O-])cc2)c1` [Compound 1, 1-(2,6-diisopropylphenyl)-3-[3-(4-nitrobenzyloxy)benzyl]urea], the inhibition at 0.1 µM (ACAT in J774 cells) is reported as 86.3 ± 1.58% and the inhibition at 0.1 µM [1] is reported as 0%.
